Data: US10770169B2, “Method of providing a treatment to a subject based on a dynamic pathway map” (THE REGENTS OF THE UNIVERSITY OF CALIFORNIA, priority 2010, dated 2020)
Like-named read-outs stand apart in the source and are kept apart here.

System: panel of 55 breast cancer cell lines
Experiment: Cell growth inhibition assay (Cell Titer Glo, 72 h, 9 doses; GI50, TGI, LC50)
Format: cell-based, human
Conditions: Homo sapiens, read-out: GI50 (converted)

In the case of `CC[C@@]1(O)C(=O)OCc2c1cc1n(c2=O)Cc2cc3c(CN(C)C)c(O)ccc3nc2-1` [Topotecan], the GI50 (AU565, AU565 cell line, censored GI50 values) is reported as 18.6 nM, the GI50 (AU565, cell line AU565) is reported as 18.6 nM and the GI50 (BT-474, BT474 cell line, censored GI50 values) is reported as 2510 nM. The GI50 (BT-474, cell line BT474) was 2510 nM, the GI50 (BT-483, BT483 cell line, censored GI50 values) was 16.2 nM and the GI50 (BT-483, cell line BT483) was 16.2 nM. The GI50 (CAMA-1, CAMA1 cell line, censored GI50 values) was 398 nM, the GI50 (CAMA-1, cell line CAMA1) was 398 nM and the GI50 (HCC38, HCC38 cell line, censored GI50 values) was 3.72 nM. For the same compound, the GI50 (HCC38, cell line HCC38) was 3.72 nM, the GI50 (HCC70, HCC70 cell line, censored GI50 values) was 19100 nM and the GI50 (HCC70, cell line HCC70) was 19100 nM. The GI50 (HCC202, HCC202 cell line, censored GI50 values) was 759 nM, the GI50 (HCC202, cell line HCC202) was 759 nM and the GI50 (HCC1143, HCC1143 cell line, censored GI50 values) was 257 nM. The GI50 (HCC1143, cell line HCC1143) was 257 nM, the GI50 (HCC1187, HCC1187 cell line, censored GI50 values) was 309 nM and the GI50 (HCC1187, cell line HCC1187) was 309 nM. The GI50 (HCC1395, HCC1395 cell line, censored GI50 values) was 15.1 nM, the GI50 (HCC1395, cell line HCC1395) was 15.1 nM and the GI50 (HCC1419, HCC1419 cell line, censored GI50 values) was 363 nM. For the same compound, the GI50 (HCC1419, cell line HCC1419) was 363 nM, the GI50 (HCC1428, HCC1428 cell line, censored GI50 values) was 447 nM and the GI50 (HCC1428, cell line HCC1428) was 447 nM. The GI50 (HCC1500, HCC1500 cell line, censored GI50 values) was 14.5 nM, the GI50 (HCC1500, cell line HCC1500) was 14.5 nM and the GI50 (HCC1806, HCC1806 cell line, censored GI50 values) was 20.4 nM. The GI50 (HCC1806, cell line HCC1806) was 20.4 nM, the GI50 (HCC1954, HCC1954 cell line, censored GI50 values) was 302 nM and the GI50 (HCC1954, cell line HCC1954) was 302 nM. For the same compound, the GI50 (HCC2185 cell line, censored GI50 values) was 40.7 nM, the GI50 (HCC3153 cell line, censored GI50 values) was 209 nM and the GI50 (LY2 cell line, censored GI50 values) was 257 nM. For the same compound, the GI50 (MCF7, MCF7 cell line, censored GI50 values) was 1320 nM, the GI50 (MCF7, cell line MCF7) was 1320 nM and the GI50 (MDA-MB-134-VI, MDAMB134VI cell line, censored GI50 values) was 115 nM. For the same compound, the GI50 (MDA-MB-157, MDAMB157 cell line, censored GI50 values) was 398 nM, the GI50 (MDA-MB-157, cell line MDAMB157) was 398 nM and the GI50 (MDA-MB-175-VII, MDAMB175VII cell line, censored GI50 values) was 2880 nM. For the same compound, the GI50 (MDA-MB-231, MDAMB231 cell line, censored GI50 values) was 1170 nM, the GI50 (MDA-MB-231, cell line MDAMB231) was 1170 nM and the GI50 (MDA-MB-361, MDAMB361 cell line, censored GI50 values) was 525 nM. The GI50 (MDA-MB-361, cell line MDAMB361) was 525 nM, the GI50 (MDA-MB-415, MDAMB415 cell line, censored GI50 values) was 191 nM and the GI50 (MDA-MB-415, cell line MDAMB415) was 191 nM. For the same compound, the GI50 (MDA-MB-436, MDAMB436 cell line, censored GI50 values) was 30.2 nM, the GI50 (MDA-MB-436, cell line MDAMB436) was 30.2 nM and the GI50 (MDA-MB-453, MDAMB453 cell line, censored GI50 values) was 85.1 nM. It also gave a GI50 (MDA-MB-453, cell line MDAMB453) of 85.1 nM, a GI50 (MDA-MB-468, MDAMB468 cell line, censored GI50 values) of 45.7 nM and a GI50 (MDA-MB-468, cell line MDAMB468) of 45.7 nM. For the same compound, the GI50 (SK-BR-3, SKBR3 cell line, censored GI50 values) was 11.2 nM, the GI50 (SK-BR-3, cell line SKBR3) was 11.2 nM and the GI50 (SUM44PE cell line, censored GI50 values) was 372 nM. For the same compound, the GI50 (SUM52PE, SUM52PE cell line, censored GI50 values) was 8.32 nM, the GI50 (SUM52PE, cell line SUM52PE) was 8.32 nM and the GI50 (SUM185PE, SUM185PE cell line, censored GI50 values) was 63.1 nM. It also gave a GI50 (SUM185PE, cell line SUM185PE) of 63.1 nM, a GI50 (SUM1315MO2, SUM1315MO2 cell line, censored GI50 values) of 8.32 nM and a GI50 (SUM-159-PT, SUM159PT cell line, censored GI50 values) of 741 nM. For the same compound, the GI50 (SUM-159-PT, cell line SUM159PT) was 741 nM, the GI50 (UACC-812, UACC812 cell line, censored GI50 values) was 60.3 nM and the GI50 (UACC-812, cell line UACC812) was 60.3 nM. It also gave a GI50 (UACC-893, UACC893 cell line, censored GI50 values) of 347 nM, a GI50 (UACC-893, cell line UACC893) of 347 nM and a GI50 (ZR-75-1, ZR751 cell line, censored GI50 values) of 40.7 nM. The GI50 (ZR-75-1, cell line ZR751) was 40.7 nM, the GI50 (ZR-75B, ZR75B cell line, censored GI50 values) was 63.1 nM and the GI50 (ZR-75B, cell line ZR75B) was 63.1 nM. It also gave a GI50 (cell line HCC2185) of 40.7 nM, a GI50 (cell line HCC3153) of 209 nM and a GI50 (cell line LY2) of 257 nM. For the same compound, the GI50 (cell line MDAMB134V) was 115 nM, the GI50 (cell line MDAMB175V) was 2880 nM and the GI50 (cell line SUM44PE) was 372 nM. For the same compound, the GI50 (cell line SUM1315MO) was 8.32 nM.
